Reference: patent US4486419A, “5,2',3',4',4",6"-Hexadeoxykanamycin and its 1-N-acylated derivative” (Zaidan Hojin Biseibutsu Kagaku Kenkyu Kai, priority 1982, dated 1984)
Values after ≈ are worked out from the molar mass of the structure shown. Like-named read-outs stand apart in the source and are kept apart here.

Assays:
[1] = tested on: Staphylococcus aureus FDA 209P; format: cell-based; details: FDA209P, nutrient agar, 37° C., 18 hours
[2] = tested on: Staphylococcus aureus Ap01; format: cell-based; details: nutrient agar, 37° C., 18 hours
[3] = tested on: Staphylococcus epidermidis 109; format: cell-based; details: nutrient agar, 37° C., 18 hours
[4] = tested on: Micrococcus luteus PCI 1001; format: cell-based; details: PCI1001, nutrient agar, 37° C., 18 hours
Bacillus anthracis = assay: microbe, parasite or virus in culture; format: cell-based; details: 18 h
[5] = tested on: Bacillus subtilis PCI 219; format: cell-based; details: PCI219, nutrient agar, 37° C., 18 hours
[6] = tested on: Bacillus subtilis NRRL B-558; format: cell-based; details: NRRLB558, nutrient agar, 37° C., 18 hours
[7] = tested on: Corynebacterium bovis 1810; assay: microbe, parasite or virus in culture; details: Corynebacterium bovis, 1810, 18 h
Description: (§1) Thus, the minimum inhibitory concentrations (mcg/ml) of the hexadeoxykanamycin and of the hexadeoxyamikacin according to this invention against various microorganisms were determined according to serial dilution method on a nutrient agar medium at 37° C., the estimation being made after 18 hours incubation. For comparison purpose, the minimum inhibitory concentrations of amikacin were also determined in the same manner as stated above.

Serratia marcescens = assay: microbe, parasite or virus in culture; details: 18 h
Description: as §1

[8] = tested on: Mycobacterium smegmatis ATCC 607; format: cell-based; details: Mycolicibacterium smegmatis, ATCC607; nutrient agar, 37° C., 18 hours
Escherichia coli NIHJ = format: cell-based; details: nutrient agar, 37° C., 18 hours
Escherichia coli K-12 = format: cell-based; details: K12, nutrient agar, 37° C., 18 hours
Escherichia coli K-12 R5 = format: cell-based; details: K12R5, 18 h
[9] = tested on: Escherichia coli K-12 R 388; format: cell-based; details: K12R388, 18 h
[10] = tested on: Escherichia coli K-12 J5R 11-2; format: cell-based; details: K12J5R112, nutrient agar, 37° C., 18 hours
[11] = tested on: Escherichia coli K-12 ML 1410; format: cell-based; details: K12ML1410, nutrient agar, 37° C., 18 hours
[12] = tested on: Escherichia coli K-12 ML 1410 R81; assay: microbe, parasite or virus in culture; format: cell-based; details: 18 h
[13] = tested on: Escherichia coli K-12 LA 290 R55; assay: microbe, parasite or virus in culture; format: cell-based; details: K12LA290R55, 18 h
[14] = tested on: Escherichia coli K-12 LA 290 R56; assay: microbe, parasite or virus in culture; format: cell-based; details: K12LA290R56, 18 h
[15] = tested on: Escherichia coli K-12 LA 290 R64; assay: microbe, parasite or virus in culture; format: cell-based; details: K12LA290R64, 18 h
[16] = tested on: Escherichia coli K-12 C 600R135; assay: microbe, parasite or virus in culture; format: cell-based; details: K12C600R135, 18 h
Escherichia coli JR255 = assay: microbe, parasite or virus in culture; format: cell-based; details: JR255, 18 h
[17] = tested on: Klebsiella pneumoniae PCI 602; format: cell-based; details: PCI602, nutrient agar, 37° C., 18 hours
[18] = tested on: Klebsiella pneumoniae 22 #3038; format: cell-based; details: nutrient agar, 37° C., 18 hours
[19] = tested on: Shigella dysenteriae JS 11910; format: cell-based; details: JS11910, 18 h
[20] = tested on: Shigella flexneri 4b JS11811; format: cell-based; details: 4BJS11811, nutrient agar, 37° C., 18 hours
Shigella sonnei JS11746 = format: cell-based; details: nutrient agar, 37° C., 18 hours
Salmonella typhi T-63 = format: cell-based; details: Salmonella enterica, 18 h
Proteus vulgaris OX19 = format: cell-based; details: nutrient agar, 37° C., 18 hours
Proteus rettgeri GN311 = format: cell-based; details: Providencia rettgeri, nutrient agar, 37° C., 18 hours
Proteus rettgeri GN466 = format: cell-based; details: Providencia rettgeri, nutrient agar, 37° C., 18 hours
Serratia SOU = format: cell-based; details: nutrient agar, 37° C., 18 hours
Providencia 2991 = format: cell-based; details: nutrient agar, 37° C., 18 hours
[21] = tested on: Pseudomonas aeruginosa No. 12; format: cell-based; details: nutrient agar, 37° C., 18 hours
[22] = tested on: Pseudomonas aeruginosa H9; format: cell-based
[23] = tested on: Pseudomonas aeruginosa H11; format: cell-based; details: nutrient agar, 37° C., 18 hours
[24] = tested on: Pseudomonas aeruginosa TI-13; format: cell-based; details: TI13, nutrient agar, 37° C., 18 hours
[25] = tested on: Pseudomonas aeruginosa B-13; format: cell-based
[26] = tested on: Pseudomonas aeruginosa 21-75; format: cell-based; details: 2175, nutrient agar, 37° C., 18 hours
[27] = tested on: Pseudomonas aeruginosa K-Ps102; format: cell-based
[28] = tested on: Pseudomonas maltophilia GN907; format: cell-based; details: Stenotrophomonas maltophilia, nutrient agar, 37° C., 18 hours

C[C@@H]1C[C@H](N)[C@@H](O)[C@@H](O[C@@H]2C[C@H](O[C@@H]3CCC[C@@H](CN)O3)[C@@H](N)C[C@H]2N)O1 [Hexadeoxykanamycin, 5,2',3',4',4",6"-hexadeoxykanamycin]
MIC [1]: 1.56 µg/mL (≈ 4.02 µM)
MIC [2]: 3.13 µg/mL (≈ 8.06 µM)
MIC [3]: 3.13 µg/mL (≈ 8.06 µM)
MIC [4]: 12.5 µg/mL (≈ 32.2 µM)
MIC (Bacillus anthracis): 1.56 µg/mL (≈ 4.02 µM)
MIC [5]: 0.78 µg/mL (≈ 2.01 µM)
MIC [6]: 0.78 µg/mL (≈ 2.01 µM)
MIC [7]: 6.25 µg/mL (≈ 16.1 µM)
MIC (Serratia marcescens): 6.25 µg/mL (≈ 16.1 µM)
MIC [8]: 0.78 µg/mL (≈ 2.01 µM)
MIC (Escherichia coli NIHJ): 3.13 µg/mL (≈ 8.06 µM)
MIC (Escherichia coli K-12): 1.56 µg/mL (≈ 4.02 µM)
MIC (Escherichia coli K-12 R5): > 100 µg/mL
MIC [9]: 1.56 µg/mL (≈ 4.02 µM)
MIC [10]: 25 µg/mL (≈ 64.3 µM)
MIC [11]: 3.13 µg/mL (≈ 8.06 µM)
MIC [12]: 25 µg/mL (≈ 64.3 µM)
MIC [13]: 100 µg/mL (≈ 257 µM)
MIC [14]: 12.5 µg/mL (≈ 32.2 µM)
MIC [15]: 25 µg/mL (≈ 64.3 µM)
MIC [16]: 1.56 µg/mL (≈ 4.02 µM)
MIC (Escherichia coli JR255): 1.56 µg/mL (≈ 4.02 µM)
MIC [17]: 1.56 µg/mL (≈ 4.02 µM)
MIC [18]: > 100 µg/mL
MIC [19]: 6.25 µg/mL (≈ 16.1 µM)
MIC [20]: 6.25 µg/mL (≈ 16.1 µM)
MIC (Shigella sonnei JS11746): 3.13 µg/mL (≈ 8.06 µM)
MIC (Salmonella typhi T-63): 0.78 µg/mL (≈ 2.01 µM)
MIC (Proteus vulgaris OX19): 1.56 µg/mL (≈ 4.02 µM)
MIC (Proteus rettgeri GN311): 0.78 µg/mL (≈ 2.01 µM)
MIC (Proteus rettgeri GN466): 1.56 µg/mL (≈ 4.02 µM)
MIC (Serratia SOU): > 100 µg/mL
MIC (Providencia 2991): 50 µg/mL (≈ 129 µM)
MIC [21]: 50 µg/mL (≈ 129 µM)
MIC ([22]; H9, 18 h): 100 µg/mL (≈ 257 µM)
MIC [23]: > 100 µg/mL
MIC [24]: 50 µg/mL (≈ 129 µM)
MIC ([25]; B13, 18 h): > 100 µg/mL
MIC [26]: > 100 µg/mL
MIC ([27]; KPS102, 18 h): > 100 µg/mL
MIC [28]: > 100 µg/mL

NCC[C@H](O)C(=O)N[C@@H]1C[C@H](N)[C@@H](O[C@H]2O[C@H](CN)[C@@H](O)[C@H](O)[C@H]2O)[C@H](O)[C@H]1O[C@H]1O[C@H](CO)[C@@H](O)[C@H](N)[C@H]1O [Amikacin, 1-N-[(S)-4-amino-2-hydroxybutyryl]kanamycin A, reference compound]
MIC [1]: 0.78 µg/mL (≈ 1.33 µM)
MIC [2]: 1.56 µg/mL (≈ 2.66 µM)
MIC [3]: 3.13 µg/mL (≈ 5.34 µM)
MIC [4]: 3.13 µg/mL (≈ 5.34 µM)
MIC (Bacillus anthracis): 0.78 µg/mL (≈ 1.33 µM)
MIC [5]: 0.39 µg/mL (≈ 0.666 µM)
MIC [6]: 0.39 µg/mL (≈ 0.666 µM)
MIC [7]: 1.56 µg/mL (≈ 2.66 µM)
MIC (Serratia marcescens): 1.56 µg/mL (≈ 2.66 µM)
MIC [8]: 0.78 µg/mL (≈ 1.33 µM)
MIC (Escherichia coli NIHJ): 1.56 µg/mL (≈ 2.66 µM)
MIC (Escherichia coli K-12): 0.39 µg/mL (≈ 0.666 µM)
MIC (Escherichia coli K-12 R5): 100 µg/mL (≈ 171 µM)
MIC [9]: 0.39 µg/mL (≈ 0.666 µM)
MIC [10]: 1.56 µg/mL (≈ 2.66 µM)
MIC [11]: 1.56 µg/mL (≈ 2.66 µM)
MIC [12]: 1.56 µg/mL (≈ 2.66 µM)
MIC [13]: 1.56 µg/mL (≈ 2.66 µM)
MIC [14]: 0.78 µg/mL (≈ 1.33 µM)
MIC [15]: 1.56 µg/mL (≈ 2.66 µM)
MIC [16]: 0.78 µg/mL (≈ 1.33 µM)
MIC (Escherichia coli JR255): 0.78 µg/mL (≈ 1.33 µM)
MIC [17]: 0.78 µg/mL (≈ 1.33 µM)
MIC [18]: 3.13 µg/mL (≈ 5.34 µM)
MIC [19]: 3.13 µg/mL (≈ 5.34 µM)
MIC [20]: 3.13 µg/mL (≈ 5.34 µM)
MIC (Shigella sonnei JS11746): 3.13 µg/mL (≈ 5.34 µM)
MIC (Salmonella typhi T-63): 0.39 µg/mL (≈ 0.666 µM)
MIC (Proteus vulgaris OX19): 1.56 µg/mL (≈ 2.66 µM)
MIC (Proteus rettgeri GN311): 0.39 µg/mL (≈ 0.666 µM)
MIC (Proteus rettgeri GN466): 0.78 µg/mL (≈ 1.33 µM)
MIC (Serratia SOU): 25 µg/mL (≈ 42.7 µM)
MIC (Providencia 2991): 1.56 µg/mL (≈ 2.66 µM)
MIC [21]: 3.13 µg/mL (≈ 5.34 µM)
MIC ([22]; H9, nutrient agar, 37° C., 18 hours, read-out: MIC): 6.25 µg/mL (≈ 10.7 µM)
MIC [23]: 12.5 µg/mL (≈ 21.3 µM)
MIC [24]: 3.13 µg/mL (≈ 5.34 µM)
MIC ([25]; B13, nutrient agar, 37° C., 18 hours, read-out: MIC): 6.25 µg/mL (≈ 10.7 µM)
MIC [26]: 12.5 µg/mL (≈ 21.3 µM)
MIC ([27]; KPS102, nutrient agar, 37° C., 18 hours, read-out: MIC): 6.25 µg/mL (≈ 10.7 µM)
MIC [28]: > 100 µg/mL
